Assay results published in ChEMBL document CHEMBL5726856, “ULK1 inhibitors and methods using same” (2019).

Biological target: T1, Serine/threonine-protein kinase ULK1 (Homo sapiens, UniProt O75385)
T1 sequence (O75385 whole entry): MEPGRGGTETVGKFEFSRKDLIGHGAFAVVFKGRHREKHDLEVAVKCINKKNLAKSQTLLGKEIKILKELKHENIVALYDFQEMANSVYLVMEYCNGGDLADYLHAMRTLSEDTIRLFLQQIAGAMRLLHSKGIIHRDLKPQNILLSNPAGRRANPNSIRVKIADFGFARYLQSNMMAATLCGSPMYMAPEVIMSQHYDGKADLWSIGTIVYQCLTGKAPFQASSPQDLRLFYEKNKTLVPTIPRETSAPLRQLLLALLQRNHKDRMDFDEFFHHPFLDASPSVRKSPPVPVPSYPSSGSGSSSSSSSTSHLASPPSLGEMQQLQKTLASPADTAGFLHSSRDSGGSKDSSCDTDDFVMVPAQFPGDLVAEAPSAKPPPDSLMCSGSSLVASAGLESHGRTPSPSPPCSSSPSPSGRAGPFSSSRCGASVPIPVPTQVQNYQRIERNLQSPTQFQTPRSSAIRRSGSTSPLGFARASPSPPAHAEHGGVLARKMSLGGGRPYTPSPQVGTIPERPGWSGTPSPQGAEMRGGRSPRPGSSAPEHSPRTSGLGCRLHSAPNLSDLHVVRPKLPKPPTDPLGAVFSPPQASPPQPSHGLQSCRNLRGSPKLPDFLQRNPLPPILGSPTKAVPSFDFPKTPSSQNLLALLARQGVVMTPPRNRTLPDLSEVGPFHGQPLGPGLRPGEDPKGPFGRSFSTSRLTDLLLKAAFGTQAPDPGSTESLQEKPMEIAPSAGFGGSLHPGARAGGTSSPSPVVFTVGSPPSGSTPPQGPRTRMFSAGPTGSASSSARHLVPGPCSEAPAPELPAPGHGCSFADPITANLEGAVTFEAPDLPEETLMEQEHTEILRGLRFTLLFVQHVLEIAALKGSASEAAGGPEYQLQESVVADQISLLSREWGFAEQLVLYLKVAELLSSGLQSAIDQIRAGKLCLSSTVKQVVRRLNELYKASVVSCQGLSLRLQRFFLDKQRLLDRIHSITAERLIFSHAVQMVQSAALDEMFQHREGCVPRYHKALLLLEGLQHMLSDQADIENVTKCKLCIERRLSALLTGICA
Assay: ULK1 inhibition assay: Gamma-32P assays to measure ULK1 kinase activity were performed as previously described. Briefly, Flag ULK1 was transfected into HEK293T cells and 20 hours later treated as indicated. The immmunoprecipitate was washed in IP buffer 3 times, and washed in kinase buffer (25 mM MOPS, pH 7.5, 1 mM EGTA, 0.1 mM Na3VO4, 15 mM MgCl2,). Hot and cold ATP were added at a 100 μM final concentration. As substrates, GST or the recombinant protein GST-Atg101 purified from E. coli were used at 1 μg for each reaction. Reactions were boiled, run out on SDS page gel. The gel was dried, and imaged using PhosphoImager software. For cold assays to asses ULK1, Flag ULK1 which was transiently overexpressed and immunoprecipited from HEK293T cells. Reactions were then run out on SDS page gel, transferred to PVDF membrane and blotted for total levelsFluorescence MicroscopyVps34flox/flox MEFs were reconstituted with Flag-VPS34 and either p40FX or GFP-DFCP1. 48 hours post infection with adenovirus expressing Cre recombinase (MOI of 100), cells were plated on glass coverslips at a density of 3×10^5 cells per well in 6-well tissue culture plates. 18 h later, cells were fixed in 4% PFA in PBS for 10 minutes and permeabilized in 0.2% Triton in PBS for 10 minutes. The following primary antibodies were used: mouse anti-Myc epitope and LC3B XP antibody (2276 and 3868 respectively, Cell Signaling Technologies). Secondary antibodies were anti-rabbit Alexa488 and anti-mouse Alexa594 (Molecular Probes, 1:1000. Cells were then fixed and counter stained with DAPI. Coverslips were mounted in FluoromountG (SouthernBiothech). Images were acquired on a Zeiss Axioplan2 epifluorescence microscope coupled to the Openlab software. Confocal images of mitotracker were taken on Zeiss LSM 710 laser scanning confocal microscope. 10 random fields per condition were acquired using the 100× objective and representative images shown. Glass coverslips were mounted directly on plate with FluoromountG and images taken on Zeiss Axioplan2 epifluorescence microscope.

Compound | IC50 [nM]
OCc1ccccc1Nc1nc(Nc2cc(F)c(F)c(F)c2)ncc1Br | > 2000
CC(=O)Nc1ccccc1Oc1nc(Nc2ccc3c(c2)OCO3)ncc1Br | > 2000
COc1cc(Nc2nc(Oc3cccc4c3CCCC4)ncc2Br)cc(O)c1OC | > 2000
FC(F)(F)c1cnc(Nc2ccc3c(c2)CCC3)nc1Nc1ccc2c(c1)OCO2 | < 200
COCC(C)(CN(C)C)Nc1nc(Nc2ccc3c(c2)CCC(=O)N3)ncc1C(F)(F)F (configuration not stated) | > 2000
COc1cc(Nc2ncc(Br)c(Oc3cccc4cc[nH]c34)n2)cc(OC)c1OC | > 2000
COc1cc(Nc2ncc(Br)c(Oc3cccc4[nH]nnc34)n2)cc(OC)c1OC | > 2000
COc1cc(Nc2ncc(Br)c(Oc3cccc(O)c3[N+](=O)[O-])n2)cc(OC)c1OC | > 2000
COc1cc(Nc2ncc(Br)c(-n3nnc4ccccc43)n2)cc(OC)c1OC | > 2000
COc1cc(Nc2ncc(Br)c(Oc3ccccc3O)n2)cc(OC)c1OC | > 2000
CNC(=O)c1ccc(OC)cc1Oc1nc(Nc2cc(O)c(OC)c(OC)c2)ncc1Br | > 2000
O=c1[nH][nH]c(=O)c2cc(Nc3ncc(C(F)(F)F)c(NC4CC4)n3)ccc12 | < 200
Nc1ccccc1Oc1nc(Nc2ccc3c(c2)OCO3)ncc1Br | < 200
COc1cc(Nc2ncc(Br)c(Oc3cccc4c3N(C(C)=O)CCC4)n2)cc(OC)c1OC | > 2000
O=C1CCc2cc(Nc3ncc(C(F)(F)F)c(Nc4ccc5c(c4)OCO5)n3)ccc2N1 | < 200
O=C(C1CC1)N1CCc2cc(Nc3ncc(C(F)(F)F)c(NC4CC4)n3)ccc2C1 | < 200
COc1cc(Nc2ncc(C(F)(F)F)c(Oc3ccccc3N)n2)cc(OC)c1OC | < 200
COc1cc(Nc2ncc(Br)c(Oc3ccccc3CNC(C)=O)n2)cc(OC)c1OC | > 2000
O=C1CCc2cc(Nc3ncc(C(F)(F)F)c(Nc4ccccc4CO)n3)ccc2N1 | < 200
COc1cc(Nc2ncc(Br)c(Oc3ccccc3NC(=O)C(C)(C)C)n2)cc(OC)c1OC | > 2000
COc1cc(Nc2ncc(Br)c(Oc3ccccc3CN(C)C)n2)cc(OC)c1OC | > 2000
CCN1CCOc2cc(Nc3nc(Nc4ccc5c(c4)CCC(=O)N5)ncc3Br)cnc21 | < 200
CCN1CCOc2cc(Nc3ncc(C(F)(F)F)c(NC4CC4)n3)cnc21 | < 200
COc1cc(Nc2ncc(Br)c(Oc3cccc4c3CCCC4)n2)cc(OC)c1OC | > 2000

Compound | IC50 [nM]
COc1cc(Nc2ncc(Br)c(Oc3ccccc3C3=NC(C)(C)CO3)n2)cc(OC)c1OC | > 2000
CNC(=O)c1ccccc1Oc1nc(Nc2ccc3c(c2)CCC(=O)N3)ncc1Br | > 2000
NC(=O)c1cccc(Nc2ncc(C(F)(F)F)c(Nc3ccc4c(c3)OCO4)n2)c1 | < 200
COc1cc(Nc2ncc(Br)c(Oc3ccccc3NS(C)(=O)=O)n2)cc(OC)c1OC | > 2000
COc1ccc(Nc2ncc(C(F)(F)F)c(NC3CC3)n2)cc1OC | < 200
Oc1nc(Nc2cnc3[nH]ccc3c2)ncc1C(F)(F)F | > 2000
COc1cc(Nc2nc(Oc3cccc4cc[nH]c34)ncc2Br)cc(O)c1OC | > 2000
COc1cccc(Nc2nc(Nc3ccc(OC(F)(F)F)c(Cl)c3)ncc2C(F)(F)F)c1 | > 2000
COc1ccc(Nc2ncc(C(F)(F)F)c(Nc3ccc4c(c3)OCO4)n2)cc1 | < 200
O=C1CCc2cc(Nc3ncc(C(F)(F)F)c(NCCCNC(=O)C4CC4)n3)ccc2N1 | < 200
COc1cc(Nc2nc(Oc3cccc4c3N(C(C)=O)CCC4)ncc2Br)cc(O)c1OC | < 200
FC(F)(F)c1cnc(Nc2cccc(Oc3ccccc3)c2)nc1Nc1ccc2c(c1)OCO2 | > 2000
FC(F)(F)c1cnc(Nc2ccc(-n3cccc3)cc2)nc1Nc1ccc2c(c1)OCO2 | < 200
CNC(=O)c1ccccc1COc1nc(Nc2cc(OC)c(OC)c(OC)c2)ncc1Br | > 2000
CC(=O)NNc1nc(Nc2ccc3c(c2)CCC(=O)N3)ncc1C(F)(F)F | > 2000
COc1cc(Nc2ncc(Br)c(Oc3cccc4ccncc34)n2)cc(OC)c1OC | > 2000
CNC(=O)Cc1ccccc1Oc1nc(Nc2cc(OC)c(OC)c(OC)c2)ncc1Br | > 2000
COc1cc(Nc2ncc(Br)c(Oc3cccc4cccnc34)n2)cc(OC)c1OC | > 2000
FC(F)(F)c1cnc(Nc2cccc(Cl)c2Cl)nc1Nc1ccc2c(c1)OCO2 | > 2000
COc1cc(Nc2ncc(Cl)c(Nc3ccccc3CO)n2)cc(OC)c1OC | > 2000
COc1cc(Nc2ncc(Br)c(Oc3ccccc3[S+](C)[O-])n2)cc(OC)c1OC (configuration not stated) | > 2000
CNC(=O)c1ccc(OC)cc1Oc1ncc(Br)c(Nc2cc(OC)c(OC)c(OC)c2)n1 | > 2000
COc1cc(Nc2ncc(Br)c(Oc3ccccc3NC(=O)C(F)(F)F)n2)cc(OC)c1OC | < 200
